Test results taken from PMC9067983, “Identification of highly selective type II kinase inhibitors with chiral peptidomimetic tails” (Journal of Enzyme Inhibition and Medicinal Chemistry, 2022).
Where a SMILES comes first, the peptide text is derived from it. [ ]: non-standard residue; d: D form. The star is where a group is joined. X1 = Cc1ccc(Nc2ncc3c(n2)N(C)C(=O)N(c2cc(C(=O)*)ccc2C)C3)cn1; Aib = CC(C)(N)C(=O)O

Key:
Lck [1] = target: T1, Lck (Homo sapiens, UniProt P06239); test: In vitro kinase assay (IC50); format: biochemical
T1 construct: purchased Reaction Biology Corp
Description: (§1) Full panel kinase profiling and kinase IC50 measurement were performed by using Reaction Biology Corp. (San Diego, USA).

c-Src = target: T2, c-Src (Homo sapiens, UniProt P12931); test: In vitro kinase assay (IC50); format: biochemical
T2 construct: purchased Reaction Biology Corp
Description: as §1

Abl1 = target: T3, Abl1 (Homo sapiens, UniProt P00519); test: In vitro kinase assay (IC50); format: biochemical
T3 construct: purchased Reaction Biology Corp
Description: as §1

p38a = target: T4, p38a (Homo sapiens, UniProt Q16539); test: In vitro kinase assay (IC50); format: biochemical
T4 construct: purchased Reaction Biology Corp
Description: as §1

Lck [2] = target: T1, Lck; test: Biochemical IC50 on Lck at Km and 1 mM ATP
Description: as §1

T4 sequence (Q16539 whole entry): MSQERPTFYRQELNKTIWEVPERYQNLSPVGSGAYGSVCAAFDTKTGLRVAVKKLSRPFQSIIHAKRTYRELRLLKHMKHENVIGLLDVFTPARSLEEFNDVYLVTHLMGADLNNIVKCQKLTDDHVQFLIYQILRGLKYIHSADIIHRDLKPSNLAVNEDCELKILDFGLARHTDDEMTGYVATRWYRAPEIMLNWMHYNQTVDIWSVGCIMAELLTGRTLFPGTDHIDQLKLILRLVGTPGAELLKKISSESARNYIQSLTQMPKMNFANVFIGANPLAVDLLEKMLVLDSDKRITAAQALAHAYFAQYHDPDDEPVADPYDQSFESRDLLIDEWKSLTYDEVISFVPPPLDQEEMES
T3 sequence (P00519 whole entry): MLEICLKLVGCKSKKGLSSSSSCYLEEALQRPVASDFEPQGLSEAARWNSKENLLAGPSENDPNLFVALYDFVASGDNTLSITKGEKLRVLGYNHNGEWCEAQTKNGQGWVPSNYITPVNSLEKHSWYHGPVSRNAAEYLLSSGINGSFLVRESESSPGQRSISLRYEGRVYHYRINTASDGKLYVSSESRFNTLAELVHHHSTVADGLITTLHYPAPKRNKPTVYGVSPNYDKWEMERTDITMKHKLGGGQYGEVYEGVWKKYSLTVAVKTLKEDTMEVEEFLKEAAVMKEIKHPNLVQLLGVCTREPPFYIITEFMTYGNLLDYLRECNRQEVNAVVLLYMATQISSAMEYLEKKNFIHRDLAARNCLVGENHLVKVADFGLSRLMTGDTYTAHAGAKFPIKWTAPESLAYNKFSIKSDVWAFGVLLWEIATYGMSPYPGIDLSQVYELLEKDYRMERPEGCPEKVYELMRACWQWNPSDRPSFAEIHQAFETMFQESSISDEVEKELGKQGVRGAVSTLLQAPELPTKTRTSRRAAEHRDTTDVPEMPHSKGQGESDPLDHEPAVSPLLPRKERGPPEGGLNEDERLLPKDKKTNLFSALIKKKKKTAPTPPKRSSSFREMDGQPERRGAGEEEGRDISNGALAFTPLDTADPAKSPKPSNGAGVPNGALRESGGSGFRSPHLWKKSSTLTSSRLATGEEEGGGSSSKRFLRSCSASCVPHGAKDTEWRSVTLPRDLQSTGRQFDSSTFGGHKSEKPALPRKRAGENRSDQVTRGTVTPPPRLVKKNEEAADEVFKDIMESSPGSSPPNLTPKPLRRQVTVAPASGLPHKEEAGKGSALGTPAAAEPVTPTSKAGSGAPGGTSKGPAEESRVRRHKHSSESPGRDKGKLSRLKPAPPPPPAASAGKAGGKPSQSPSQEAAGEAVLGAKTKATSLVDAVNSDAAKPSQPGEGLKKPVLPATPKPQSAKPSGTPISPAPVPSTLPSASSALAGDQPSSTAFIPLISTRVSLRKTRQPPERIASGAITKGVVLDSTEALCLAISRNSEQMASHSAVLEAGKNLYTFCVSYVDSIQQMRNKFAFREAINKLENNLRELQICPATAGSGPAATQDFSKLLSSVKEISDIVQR
T1 sequence (P06239 whole entry): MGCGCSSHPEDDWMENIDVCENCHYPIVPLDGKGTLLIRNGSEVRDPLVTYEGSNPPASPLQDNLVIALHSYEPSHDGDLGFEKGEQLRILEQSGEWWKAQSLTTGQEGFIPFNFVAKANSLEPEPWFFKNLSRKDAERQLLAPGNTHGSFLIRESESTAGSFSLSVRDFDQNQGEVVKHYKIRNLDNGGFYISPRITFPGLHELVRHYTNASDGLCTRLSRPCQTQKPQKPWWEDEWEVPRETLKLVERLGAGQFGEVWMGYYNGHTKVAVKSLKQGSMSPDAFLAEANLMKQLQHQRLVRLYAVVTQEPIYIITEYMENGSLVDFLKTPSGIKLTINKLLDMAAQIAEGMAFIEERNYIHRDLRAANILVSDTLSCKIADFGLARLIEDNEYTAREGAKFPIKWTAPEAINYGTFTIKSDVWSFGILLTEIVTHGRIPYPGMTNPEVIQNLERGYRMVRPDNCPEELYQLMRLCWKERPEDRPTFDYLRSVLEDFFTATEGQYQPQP
T2 sequence (P12931 whole entry): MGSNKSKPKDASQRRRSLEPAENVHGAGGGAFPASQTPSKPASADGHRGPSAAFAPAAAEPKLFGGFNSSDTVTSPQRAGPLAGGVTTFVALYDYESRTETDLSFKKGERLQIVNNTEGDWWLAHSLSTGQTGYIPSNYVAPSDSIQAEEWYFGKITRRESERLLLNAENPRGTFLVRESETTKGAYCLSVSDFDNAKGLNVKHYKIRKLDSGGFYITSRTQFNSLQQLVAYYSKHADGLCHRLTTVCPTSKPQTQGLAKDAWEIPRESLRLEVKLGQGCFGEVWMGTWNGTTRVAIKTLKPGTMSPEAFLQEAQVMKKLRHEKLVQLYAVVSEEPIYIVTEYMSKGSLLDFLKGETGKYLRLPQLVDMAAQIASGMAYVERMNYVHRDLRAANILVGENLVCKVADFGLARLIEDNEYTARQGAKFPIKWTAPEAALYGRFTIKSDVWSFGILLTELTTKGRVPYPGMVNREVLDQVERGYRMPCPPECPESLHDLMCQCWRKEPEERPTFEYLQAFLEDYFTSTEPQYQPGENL

| Structure (SMILES) | IC50 (Lck [1]) | IC50 (c-Src) | IC50 (Abl1) | IC50 (p38a) | IC50 (Lck [2]; ATP conc. 14 µM (Km)) | IC50 (Lck [2]; ATP conc. 1 mM) | mode of inhibition (Lck [2]; IC50 at Km vs 1 mM ATP) | selectivity for Lck over c-Src (Lck [1]) |
| --- | --- | --- | --- | --- | --- | --- | --- | --- |
| CC[C@@H](C)[C@H]1N=C(c2ccccc2)c2ccc(C(=O)Nc3ccc(C)c(N4Cc5cnc(Nc6ccc(C)nc6)nc5N(C)C4=O)c3)cc2NC1=O [11e, (R)-3-((R)-s-butyl)-N-(4-methyl-3-(1-methyl-7-((6-methylpyridin-3-yl)amino)-2-oxo-1,4-dihydropyrimido[4,5-d]pyrimidin-3(2H)-yl)phenyl)-2-oxo-5-phenyl-2,3-dihydro-1H-benzo[e][1,4]diazepine-8-carboxamide] | 10.7 nM | 12.8 nM | 55.2 nM | 250 nM | – | – | – | – |
| Cc1ccc(Nc2ncc3c(n2)N(C)C(=O)N(c2cc(NC(=O)c4ccc5c(c4)N(Cc4ccccc4)C(=O)[C@H](C)N=C5c4ccccc4)ccc2C)C3)cn1 [11d, (S)-1-benzyl-3-methyl-N-(4-methyl-3-(1-methyl-7-((6-methylpyridin-3-yl)amino)-2-oxo-1,4-dihydropyrimido[4,5-d]pyrimidin-3(2H)-yl)phenyl)-2-oxo-5-phenyl-2,3-dihydro-1H-benzo[e][1,4]diazepine-8-carboxamide] | 3.42 nM | 15.2 nM | 24.1 nM | 101 nM | – | – | – | – |
| Cc1ccc(Nc2ncc3c(n2)N(C)C(=O)N(c2cc(C(=O)N[C@H](C(=O)N4CCC[C@@H]4C(=O)NC(C)(C)C(=O)N[C@@H](CC(C)C)C(=O)N(C)C)C(C)C)ccc2C)C3)cn1 [7b, (R)-N-(1-(((S)-1-(dimethylamino)-4-methyl-1-oxopentan-2-yl)amino)-2-methyl-1-oxopropan-2-yl)-1-((4-methyl-3-(1-methyl-7-((6-methylpyridin-3-yl)amino)-2-oxo-1,4-dihydropyrimido[4,5-d]pyrimidin-3(2H)-yl)benzoyl)-L-valyl)pyrrolidine-2-carboxamide] (X1-V[dP][Aib]L-NMe2) | 174 nM | 379 nM | 317 nM | 2050 nM | – | – | – | – |
| Cc1ccc(Nc2ncc3c(n2)N(C)C(=O)N(c2cc(NC(=O)c4ccc5c(c4)NC(=O)[C@H](Cc4ccccc4)N=C5c4ccccc4)ccc2C)C3)cn1 [11a, (S)-3-benzyl-N-(4-methyl-3-(1-methyl-7-((6-methylpyridin-3-yl)amino)-2-oxo-1,4-dihydropyrimido[4,5-d]pyrimidin-3(2H)-yl)phenyl)-2-oxo-5-phenyl-2,3-dihydro-1H-benzo[e][1,4]diazepine-8-carboxamide] | 8.5 nM | 20.4 nM | 189 nM | 1830 nM | – | – | – | – |
| Cc1ccc(Nc2ncc3c(n2)N(C)C(=O)N(c2cc(NC(=O)c4ccc5c(c4)N(Cc4ccccc4)C(=O)[C@H](CC(C)C)N=C5c4ccccc4)ccc2C)C3)cn1 [11b, (S)-1-benzyl-3-isobutyl-N-(4-methyl-3-(1-methyl-7-((6-methylpyridin-3-yl)amino)-2-oxo-1,4-dihydropyrimido[4,5-d]pyrimidin-3(2H)-yl)phenyl)-2-oxo-5-phenyl-2,3-dihydro-1H-benzo[e][1,4]diazepine-8-carboxamide] | 37.3 nM | 410 nM | 453 nM | 3430 nM | 510 nM | > 100000 nM | ATP competitive kinase inhibitors | over 10 fold |
| Cc1ccc(Nc2ncc3c(n2)N(C)C(=O)N(c2cc(NC(=O)c4ccc5c(c4)NC(=O)[C@H](C)N=C5c4ccccc4)ccc2C)C3)cn1 [11c, (S)-3-methyl-N-(4-methyl-3-(1-methyl-7-((6-methylpyridin-3-yl)amino)-2-oxo-1,4-dihydropyrimido[4,5-d]pyrimidin-3(2H)-yl)phenyl)-2-oxo-5-phenyl-2,3-dihydro-1H-benzo[e][1,4]diazepine-8-carboxamide] | 1.17 nM | 2.84 nM | 4.64 nM | 14.9 nM | – | – | – | – |
